Data set [1] concerns the target T1, Prostaglandin G/H synthase 2 (Homo sapiens, UniProt P35354).
T1 sequence (P35354 whole entry): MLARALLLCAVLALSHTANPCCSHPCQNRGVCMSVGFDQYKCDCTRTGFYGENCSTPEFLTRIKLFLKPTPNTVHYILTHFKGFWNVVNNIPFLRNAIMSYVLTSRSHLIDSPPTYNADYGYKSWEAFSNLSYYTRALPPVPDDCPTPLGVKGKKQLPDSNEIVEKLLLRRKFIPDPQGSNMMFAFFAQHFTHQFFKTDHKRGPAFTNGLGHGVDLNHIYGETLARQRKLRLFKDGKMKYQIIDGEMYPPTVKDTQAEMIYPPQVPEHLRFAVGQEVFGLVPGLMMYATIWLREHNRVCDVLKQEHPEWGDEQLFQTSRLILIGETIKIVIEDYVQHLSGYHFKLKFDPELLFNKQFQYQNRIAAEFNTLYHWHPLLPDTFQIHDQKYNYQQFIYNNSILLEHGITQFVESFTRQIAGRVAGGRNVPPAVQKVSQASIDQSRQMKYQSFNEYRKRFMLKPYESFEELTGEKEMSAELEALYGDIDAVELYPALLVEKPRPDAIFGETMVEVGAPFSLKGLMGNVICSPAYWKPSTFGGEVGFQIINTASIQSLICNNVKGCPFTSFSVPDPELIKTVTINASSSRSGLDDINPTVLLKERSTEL
In words: Inhibition of human recombinant COX-2 assessed as production of PGE2 using arachidonic acid as a substrate preincubated for 60 mins followed by substrate addition and measured after 2 mins by ELISA analysis.

For data set [2], the target named is T2, Prostaglandin G/H synthase 1 (Ovis aries) (UniProt P05979).
T2 sequence (whole entry): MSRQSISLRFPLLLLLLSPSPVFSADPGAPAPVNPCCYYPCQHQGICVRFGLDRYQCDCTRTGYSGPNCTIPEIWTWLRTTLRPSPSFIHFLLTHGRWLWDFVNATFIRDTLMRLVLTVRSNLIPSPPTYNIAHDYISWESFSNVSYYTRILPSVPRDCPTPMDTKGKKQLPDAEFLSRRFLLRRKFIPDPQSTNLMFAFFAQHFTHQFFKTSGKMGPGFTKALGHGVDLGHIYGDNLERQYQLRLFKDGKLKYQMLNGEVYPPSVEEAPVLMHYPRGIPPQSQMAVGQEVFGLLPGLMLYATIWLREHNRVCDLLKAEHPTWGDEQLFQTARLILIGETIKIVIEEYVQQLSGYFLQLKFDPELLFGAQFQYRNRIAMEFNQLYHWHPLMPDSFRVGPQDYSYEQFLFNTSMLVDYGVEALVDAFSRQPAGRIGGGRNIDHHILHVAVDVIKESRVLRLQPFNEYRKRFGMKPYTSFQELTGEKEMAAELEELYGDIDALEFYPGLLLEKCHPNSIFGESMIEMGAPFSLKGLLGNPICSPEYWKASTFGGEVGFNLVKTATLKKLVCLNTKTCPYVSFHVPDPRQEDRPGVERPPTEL
In words: Inhibition of ovine COX-1 assessed as production of PGE2 using arachidonic acid as a substrate preincubated for 60 mins at 100 uM followed by substrate addition and measured after 2 mins by ELISA analysis relative to control. Conditions: time 62.0 min.

In data set [3] the target is T2, Prostaglandin G/H synthase 1 (Ovis aries). In words: Inhibition of ovine COX-1 assessed as production of PGE2 using arachidonic acid as a substrate preincubated for 60 mins at 10 uM followed by substrate addition and measured after 2 mins by ELISA analysis relative to control.
Data set [4] shares this target. In words: Inhibition of ovine COX-1 assessed as production of PGE2 using arachidonic acid as a substrate preincubated for 60 mins at 1 uM followed by substrate addition and measured after 2 mins by ELISA analysis relative to control.
Data set [5] has the same target. The data set is described as follows: Inhibition of ovine COX-1 assessed as production of PGE2 using arachidonic acid as a substrate preincubated for 60 mins at 0.1 uM followed by substrate addition and measured after 2 mins by ELISA analysis relative to control.
Data set [6] has as its target T3, Prostaglandin G/H synthase 1 (Ovis aries, UniProt P05979).
T3 sequence (P05979 whole entry): T2 sequence (whole entry)
The data set is described as follows: Inhibition of ovine COX-1 assessed as production of PGE2 using arachidonic acid as a substrate preincubated for 60 mins followed by substrate addition and measured after 2 mins by ELISA analysis.

Data set [7] in a line: Selectivity index, ratio of IC50 for ovine COX-1 to IC50 for human COX-2.
Data set [8] is described as follows: Solubility of the compound in water. The following applies: buffer. The data set is classed as physicochemical.
Data set [9] concerns Mus musculus. In words: Antiinflammatory activity in mouse xylene induced ear edema model assessed as ear weight difference at 30 mg/kg, po once daily administered for 3 days prior to xylene stimulation and measured after 30 mins (reference value: 13.64 =/- 2.55 mg). Conditions: time 3 day. The class given is functional.
In data set [10] the test system is Mus musculus. In words: Antiinflammatory activity in mouse xylene induced ear edema model assessed as inhibition of auricular edemas at 30 mg/kg, po once daily administered for 3 days prior to xylene stimulation and measured after 30 mins relative to control. The following applies: 72 h, time 3 day. The data set is classed as functional.
For data set [11], the system named is Mus musculus. The data set is described as follows: Analgesic activity in mouse model of acetic-acid induced writhing assessed as number of writhes at 30 mg/kg, po once daily administered for 3 days prior to acetic acid injection measured after 20 mins (reference value: 29.13+/-9.36). The class given is functional. The following applies: time 3 day.
Data set [12] relates to Mus musculus. In words: Analgesic activity in mouse model of acetic-acid induced writhing assessed as inhibition of writhing at 30 mg/kg, po once daily administered for 3 days prior to acetic acid injection measured after 20 mins relative to control. The class given is functional. Conditions: 72 h, time 3 day.
The test system of data set [13] is RAW264.7. The data set is described as follows: Cytotoxicity against mouse RAW 264.7 cells assessed as decreased cell viability at 0.01 to 10 uM measured after 18 hrs by MTT assay. The class given is cell-based. Conditions: raw264.7, 18 h, dose 0.01-10 µM.
Data set [14] concerns RAW264.7. In words: Cytotoxicity against mouse RAW 264.7 cells assessed as decreased cell viability at 100 uM measured after 18 hrs by MTT assay. The data set is classed as cell-based. Conditions: raw264.7, 18 h.
Data set [15] deals with RAW264.7. In words: Inhibition of LPS induced NO production in mouse RAW264.7 cells at 0.01 uM in the presence of 500 ng/mL LPS measured after 24 hrs by Griess reagent based assay relative to control. The data set is classed as functional.
Data set [16] concerns RAW264.7. The data set is described as follows: Inhibition of LPS induced NO production in mouse RAW264.7 cells at 0.1 uM in the presence of 500 ng/mL LPS measured after 24 hrs by Griess reagent based assay relative to control. The class given is functional.
Data set [17] relates to RAW264.7. The data set is described as follows: Inhibition of LPS induced NO production in mouse RAW264.7 cells at 1 uM in the presence of 500 ng/mL LPS measured after 24 hrs by Griess reagent based assay relative to control. The data set is classed as functional.
Data set [18] deals with RAW264.7. The data set is described as follows: Inhibition of LPS induced NO production in mouse RAW264.7 cells at 10 uM in the presence of 500 ng/mL LPS measured after 24 hrs by Griess reagent based assay relative to control. The class given is functional.
In data set [19] the test system is RAW264.7. The data set is described as follows: Inhibition of LPS induced NO production in mouse RAW264.7 cells at 100 uM in the presence of 500 ng/mL LPS measured after 24 hrs by Griess reagent based assay relative to control. The data set is classed as functional.
The nature of data set [20]: Acute oral toxicity in female kunming mouse assessed as signs of gross toxicity measured once daily for 14 days. Conditions: in vivo, time 14 day.
Data set [21] is described as follows: Acute oral toxicity in female kunming mouse assessed as survival at 2000 mg/kg measured once daily for 14 days. Conditions: in vivo, 336 h, time 14 day. The class given is organism-based.
The nature of data set [22]: Acute oral toxicity in female kunming mouse assessed as effect on liver histopathology at 2000 mg/kg measured once daily for 14 days. The following applies: in vivo, 336 h, time 14 day. The data set is classed as organism-based.
A short description of data set [23]: Acute oral toxicity in female kunming mouse assessed as effect on kidney histopathology at 2000 mg/kg measured once daily for 14 days. The class given is organism-based. Conditions: in vivo, 336 h, time 14 day.

Each structure is given as a SMILES string.

Take `Cc1ccc(-c2cc(C)n(S(=O)(=O)Oc3ccccc3Cl)n2)cc1`: the 50% inhibitory concentration (IC50) in data set [1] is 530 nM; in data set [6], more than 100000 nM. Further, the inhibition was determined as 33% in data set [2], 26% in data set [3], 24% in data set [4] and 20% in [5]. Also, in [7], the Ratio is more than 189. Moreover, the solubility result in data set [8] is listed as “Insoluble”. Besides, the Activity in the data set with Mus musculus [9] is listed as 9.96 mg; in the data set on Mus musculus [11] it was 15; with RAW264.7 [13], 80%; with RAW264.7 [14], 80%; in data set [21], “Non-Toxic”; in data set [22] it was “Non-Toxic”. The Activity entry in [23] was “Non-Toxic”. The inhibition in vivo at 30 mg/kg is 27% in the data set on Mus musculus [10] and 48.5% in the data set with Mus musculus [12]. Also, the inhibition at 0.01 µM in the data set with RAW264.7 [15] worked out at 12.6%. Moreover, the inhibition at 0.1 µM in the data set with RAW264.7 [16] was found to be 23.6%. In the data set on RAW264.7 [17], the inhibition at 1 µM is 23.8%. The inhibition at 10 µM in the data set on RAW264.7 [18] came to 22%. In addition, the inhibition at 100 µM with RAW264.7 [19] was 29.4%. Further, the LD50 at 336 h in [20] is more than 2000 mg/kg.

Source of the values: ChEMBL document CHEMBL4808246 (Bioorg Med Chem, 2021).
